Data published in patent US6818774B2, “Isoquinoline derivatives” (priority 2002, dated 2004).
Where two headings read alike, the source gives them in different places.

Tests used:
human MAO-B = biological target: T1, human MAO-B (Homo sapiens, UniProt P27338); assay: MAO-B enzymatic activity, spectrophotometric assay (tyramine, Amplex Red) on membranes of transfected EBNA cells; assay type: biochemical
T1 construct: expressed in transfected cells; host or cells: EBNA cells (transient transfection); cell membranes used
T1 sequence (P27338 1-520): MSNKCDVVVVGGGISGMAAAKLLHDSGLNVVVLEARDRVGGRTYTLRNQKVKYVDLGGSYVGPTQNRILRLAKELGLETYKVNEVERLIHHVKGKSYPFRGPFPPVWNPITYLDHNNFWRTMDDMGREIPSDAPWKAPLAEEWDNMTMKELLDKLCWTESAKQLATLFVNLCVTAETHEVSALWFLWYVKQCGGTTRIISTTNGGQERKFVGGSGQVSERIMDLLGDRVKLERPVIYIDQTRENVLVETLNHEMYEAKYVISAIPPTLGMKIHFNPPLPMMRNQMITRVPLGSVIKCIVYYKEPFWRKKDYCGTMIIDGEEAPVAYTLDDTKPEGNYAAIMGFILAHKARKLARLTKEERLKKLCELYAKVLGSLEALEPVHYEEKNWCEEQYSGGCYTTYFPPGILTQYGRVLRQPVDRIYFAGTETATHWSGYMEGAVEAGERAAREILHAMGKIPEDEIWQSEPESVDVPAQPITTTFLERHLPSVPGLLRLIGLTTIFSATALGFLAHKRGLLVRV
Protocol: The cDNA's encoding human MAO-A and MAO-B were transiently transfected into EBNA cells using the procedure described by E.-J. Schlaeger and K. Christensen (Transient Gene Expression in Mammalian Cells Grown in Serum-free Suspension Culture; Cytotechnology, 15: 1-13, 1998). After transfection, cells were homogenised by means of a Polytron homogenizer in 20 mM Tris HCl buffer, pH 8.0, containing 0.5 mM EGTA and 0.5 mM phenylmethanesulfonyl fluoride. Cell membranes were obtained by centrifugation at 45,000×g and, after two rinsing step with 20 mM Tris HCl buffer, pH 8.0, containing 0.5 mM EGTA, membranes were eventually re-suspended in the above buffer and aliquots stored at −80° C. until use.
(§1) MAO-A and MAO-B enzymatic activity was assayed in 96-well-plates using a spectrophotometric assay adapted from the method described by M. Zhou and N. Panchuk-Voloshina (A One-Step Fluorometric Method for the Continuous Measurement of Monoamine Oxidase Activity, Analytical Biochemistry, 253: 169174, 1997). Briefly, membrane aliquots were incubated in 0.1 M potassium phosphate buffer, pH 7.4, for 30 min at 37° C. with or without various concentrations of the compounds. After this period, the enzymatic reaction was started by the addition of the MAO substrate tyramine together with 1 U/ml horse-radish peroxidase (Roche Biochemicals) and 80 μM N-acetyl-3,7,-dihydroxyphenoxazine (Amplex Red, Molecular Probes). The samples were further incubated for 30 min at 37° C. in a final volume of 200 μl and absorbance was then determined at a wavelength of 570 nm using a SpectraMax plate reader (Molecular Devices). Background (non-specific) absorbance was determined in the presence of 10 μM clorgyline for MAO-A or 10 μM L-deprenyl for MAO-B.
IC50 values, that is, the concentration of a test compound according to the invention required to inhibit the MAO-B enzyme activity by 50%, were determined from inhibition curves obtained using nine inhibitor concentrations in duplicate, by fitting data to a four parameter logistic equation using a computer program.

human MAO-A = biological target: T2, human MAO-A (Homo sapiens, UniProt P21397); assay: MAO-A enzymatic activity, spectrophotometric assay (tyramine, Amplex Red) on membranes of transfected EBNA cells; assay type: biochemical
T2 construct: expressed in transfected cells; host or cells: EBNA cells (transient transfection); cell membranes used
T2 sequence (P21397 whole entry): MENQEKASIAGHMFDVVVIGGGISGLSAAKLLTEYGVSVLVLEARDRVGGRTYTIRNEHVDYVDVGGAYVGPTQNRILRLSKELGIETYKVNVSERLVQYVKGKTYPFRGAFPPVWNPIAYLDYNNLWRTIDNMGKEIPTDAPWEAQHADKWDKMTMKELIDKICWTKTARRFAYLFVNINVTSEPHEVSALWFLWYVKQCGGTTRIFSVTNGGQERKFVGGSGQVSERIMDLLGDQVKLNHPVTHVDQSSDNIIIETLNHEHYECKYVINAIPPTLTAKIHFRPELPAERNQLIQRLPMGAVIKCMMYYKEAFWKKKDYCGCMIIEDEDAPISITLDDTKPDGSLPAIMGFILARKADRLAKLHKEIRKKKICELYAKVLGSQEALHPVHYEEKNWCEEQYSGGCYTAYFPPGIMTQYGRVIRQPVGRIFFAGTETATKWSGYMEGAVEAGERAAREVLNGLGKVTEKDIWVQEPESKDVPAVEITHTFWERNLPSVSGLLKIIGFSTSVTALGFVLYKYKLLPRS
Protocol: After transfection, cells were homogenised by means of a Polytron homogenizer in 20 mM Tris HCl buffer, pH 8.0, containing 0.5 mM EGTA and 0.5 mM phenylmethanesulfonyl fluoride. Cell membranes were obtained by centrifugation at 45,000×g and, after two rinsing step with 20 mM Tris HCl buffer, pH 8.0, containing 0.5 mM EGTA, membranes were eventually re-suspended in the above buffer and aliquots stored at −80° C. until use.
as §1, with “Briefly,” for “MAO-A and MAO-B enzymatic activity was assayed in 96-well-plates using a spectrophotometric assay adapted from the method described by M. Zhou and N. Panchuk-Voloshina (A One-Step Fluorometric Method for the Continuous Measurement of Monoamine Oxidase Activity, Analytical Biochemistry, 253: 169174, 1997). Briefly,”

[1] = membranes, 30 min preincubation at 37° C., pH 7.4, substrate tyramine, read-out: IC50 MAO-A

With `CC(C(N)=O)N1CCc2cc(OCc3cccc(F)c3)ccc2C1=O` (racemic) [Example 7, 2-[6-(3-Fluoro-benzyloxy)-1-oxo-3,4-dihydro-1H-isoquinolin-2-yl]-propionamide] the IC50 (human MAO-B) was 12 nM and the IC50 (human MAO-A; [1]) was over 10000 nM.
In the case of `O=C1NCCc2cc(OCc3cccc(F)c3)ccc21` [Example 1, 6-(3-Fluoro-benzyloxy)-3,4-dihydro-2H-isoquinolin-1-one], the IC50 (human MAO-B) is reported as 104 nM and the IC50 (human MAO-A; [1]) is reported as 5240 nM.
Compound `NC(=O)CN1CCc2cc(OCc3cccc(F)c3)ccc2C1=O` [Example 6, 2-[6-(3-Fluoro-benzyloxy)-1-oxo-3,4-dihydro-1H-isoquinolin-2-yl]-acetamide] has an IC50 (human MAO-B) of 8 nM and an IC50 (human MAO-A; [1]) of 330 nM.
`CC(CO)N1CCc2cc(OCc3cccc(F)c3)ccc2C1=O` (stereo not shown) [Example 8, 6-(3-Fluoro-benzyloxy)-2-(2-hydroxy-1-methyl-ethyl)-3,4-dihydro-2H-isoquinolin-1-one] gave an IC50 (human MAO-B) of 74 nM and an IC50 (human MAO-A; [1]) of over 10000 nM.
With `N#CCN1CCc2cc(OCc3cccc(F)c3)ccc2C1=O` [Example 12, [6-(3-Fluoro-benzyloxy)-1-oxo-3,4-dihydro-1H-isoquinolin-2-yl]-acetonitrile] the IC50 (human MAO-B) was 154 nM.
For `COCC(C)N1CCc2cc(OCc3cccc(F)c3)ccc2C1=O` (stereo not shown) [Example 14, 6-(3-Fluoro-benzyloxy)-2-(2-methoxy-1-methyl-ethyl)-3,4-dihydro-2H-isoquinolin-1-one], the IC50 (human MAO-B) was 63 nM and the IC50 (human MAO-A) was 4220 nM.
Work on `NC(=O)CCN1CCc2cc(OCc3cccc(F)c3)ccc2C1=O` [Example 19, 3-[6 (3-Fluoro-benzyloxy)-1-oxo-3,4-dihydro-1H-isoquinolin-2-yl]-propionamide] yielded an IC50 (human MAO-B) of 392 nM.
`C[C@H](C(N)=O)N1CCc2cc(OCc3ccc(F)cc3)ccc2C1=O` [Example 20, 2-(R)-[6-(4-Fluoro-benzyloxy)-1-oxo-3,4-dihydro-1H-isoquinolin-2-yl]-propionamide] gave an IC50 (human MAO-B) of 12 nM and an IC50 (human MAO-A) of over 10000 nM.
In the case of `C[C@@H](C(N)=O)N1CCc2cc(OCc3ccc(F)cc3)ccc2C1=O` [Example 21, 2(S)-[6-(4-Fluoro-benzyloxy)-1-oxo-3,4-dihydro-1H-isoquinolin-2-yl]-propionamide], the IC50 (human MAO-B) is reported as 18 nM and the IC50 (human MAO-A) is reported as over 10000 nM.
Work on `NC(=O)[C@H](CO)N1CCc2cc(OCc3ccc(F)cc3)ccc2C1=O` [Example 22, 2(S)-[6(4-Fluoro-benzyloxy)-1-oxo-3,4-dihydro-1H-isoquinolin-2-yl]-3-hydroxy-propionamide] yielded an IC50 (human MAO-B) of 20 nM and an IC50 (human MAO-A) of over 10000 nM.
Compound `CC(C)(C(N)=O)N1CCc2cc(OCc3ccc(F)cc3)ccc2C1=O` [Example 30, 2-[6-(4-Fluoro-benzyloxy)-1-oxo-3,4-dihydro-1H-isoquinolin-2-yl]-isobutyramide] has an IC50 (human MAO-B) of 1130 nM.
